Patent US11850246B2, “Method for treatment of cytokine release syndrome” (NOVMETAPHARMA CO., LTD., priority 2020, dated 2023)

Tests used:
[1] = tested on: macrophage; assay: Anti-inflammatory effect on LPS-activated macrophage: activation surface markers by flow cytometry; assay type: cell-based; conditions: 5 μM compound; macrophage activated with 100 ng/mL LPS; 24 hours after LPS treatment; flow cytometry (FIG. 1A-1C)
Protocol: Dysregulation of immune activation in innate immune cell is the main factor initiating cytokine release syndrome. Immune regulatory effects of the compound of Chemical Formula 1 on macrophage were assessed employing compound 18a (DMRC200434). 5 μM DMRC200434 was treated on activated macrophage with 100 ng/mL lipopolysaccharide (LPS) (Sigma-Aldrich). 24 hours after LPS treatment, activation markers (CD40, CD80, CD86) were measured by flow cytometry.

[2] = tested on: LPS induced endotoxemia model; assay: LPS induced endotoxemia model, survival; assay type: in vivo, C57BL/6 mice; conditions: 30 mg/kg injected 24 hours prior to and at start of LPS (50 mg/kg) injection; survival observed for 50 hours (FIG. 2)
Protocol: 6 to 8-week female C57BL/6 mice (Jackson Lab) were used according to an animal protocol approved by the Institutional Animal Care and Use Committee of Kyungpook National University.
Compound of Chemical Formula 1 (DMRC200434, 30 mg/kg) was dissolved in a solution of 5%—DMSO: 95%—20% PEG400(Saline) and was injected at two points—at 24 hours prior to, and at the start of LPS (50 mg/kg) injection.
The inventors analyzed the efficacy of a compound of Chemical Formula 1 in vivo on LPS-induced endotoxemia model employing DMRC200434. To assess the effect of DMRC200434 on endotoxemia, DMRC200434 was treated on LPS induced endotoxemia model.

CC(C)N1CCN(c2ccc(/C(=C(/CCCO)c3ccccc3)c3ccc(O)cc3)cc2)CC1 [DMRC200434, (E)-5-(4-hydroxyphenyl)-5-(4-(4-isopropylpiperazin-1-yl)phenyl)-4-phenylpent-4-en-1-ol]
expression of inflammatory surface marker CD40 [1]: downregulated
expression of inflammatory surface marker CD80 [1]: downregulated
expression of inflammatory surface marker CD86 [1]: downregulated
endotoxin mediated death (survival) [2]: significantly delayed
